Test results taken from ChEMBL document CHEMBL1909046, “DrugMatrix in vitro pharmacology data”.

How the values were obtained:
[1] = target: T1, Alpha-2A adrenergic receptor (Homo sapiens, UniProt P08913); assay type: cell membranes, Sf9, Membrane; conditions: sf9; also: in other assays of this panel Not Active means under 50% inhibition at 10 µM
T1 sequence (P08913 whole entry): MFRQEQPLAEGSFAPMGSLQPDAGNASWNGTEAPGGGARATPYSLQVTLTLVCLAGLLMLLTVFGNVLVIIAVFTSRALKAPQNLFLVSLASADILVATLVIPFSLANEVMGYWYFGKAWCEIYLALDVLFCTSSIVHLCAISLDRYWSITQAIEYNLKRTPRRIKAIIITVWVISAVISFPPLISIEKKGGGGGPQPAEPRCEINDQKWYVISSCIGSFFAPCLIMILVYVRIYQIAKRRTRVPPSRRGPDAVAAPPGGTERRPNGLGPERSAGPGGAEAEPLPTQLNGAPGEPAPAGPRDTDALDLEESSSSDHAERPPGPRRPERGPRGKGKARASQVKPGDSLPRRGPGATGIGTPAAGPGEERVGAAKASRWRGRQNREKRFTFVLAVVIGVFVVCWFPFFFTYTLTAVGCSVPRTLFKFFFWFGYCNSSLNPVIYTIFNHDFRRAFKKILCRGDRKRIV

[2] = target: Carbonic anhydrase 2 (Homo sapiens, UniProt P00918); test: DRUGMATRIX: Carbonic Anhydrase II enzyme inhibition (substrate: 4-Nitrophenyl acetate (4-NPA)); assay type: tissue-based, Erythrocyte; conditions: erythrocyte; Not Active = under 50% inhibition at 10 µM
[3] = target: T2, Cholecystokinin receptor type A (Homo sapiens, UniProt P32238); assay type: cell membranes, Membrane; conditions: 1321-n1; also: in other assays of this panel Not Active means under 50% inhibition at 10 µM
T2 sequence (P32238 whole entry): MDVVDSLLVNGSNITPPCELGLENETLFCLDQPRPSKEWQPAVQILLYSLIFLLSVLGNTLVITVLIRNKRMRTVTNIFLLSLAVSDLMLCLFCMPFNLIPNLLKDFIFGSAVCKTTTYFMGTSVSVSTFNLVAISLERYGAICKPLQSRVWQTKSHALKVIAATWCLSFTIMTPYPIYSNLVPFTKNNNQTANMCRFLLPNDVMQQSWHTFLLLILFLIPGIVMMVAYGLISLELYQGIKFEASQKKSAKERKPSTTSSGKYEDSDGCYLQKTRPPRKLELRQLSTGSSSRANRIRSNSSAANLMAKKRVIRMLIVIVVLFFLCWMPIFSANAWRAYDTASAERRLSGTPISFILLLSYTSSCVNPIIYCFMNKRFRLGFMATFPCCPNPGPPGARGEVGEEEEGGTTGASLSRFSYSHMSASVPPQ

[4] = target: D(1A) dopamine receptor (Homo sapiens, UniProt P21728); test: DRUGMATRIX: Dopamine D1 radioligand binding (ligand: [3H] SCH-23390); assay type: cell membranes, CHO, Membrane; conditions: cho; Not Active = under 50% inhibition at 10 µM
Sequence of D(1A) dopamine receptor (P21728 whole entry): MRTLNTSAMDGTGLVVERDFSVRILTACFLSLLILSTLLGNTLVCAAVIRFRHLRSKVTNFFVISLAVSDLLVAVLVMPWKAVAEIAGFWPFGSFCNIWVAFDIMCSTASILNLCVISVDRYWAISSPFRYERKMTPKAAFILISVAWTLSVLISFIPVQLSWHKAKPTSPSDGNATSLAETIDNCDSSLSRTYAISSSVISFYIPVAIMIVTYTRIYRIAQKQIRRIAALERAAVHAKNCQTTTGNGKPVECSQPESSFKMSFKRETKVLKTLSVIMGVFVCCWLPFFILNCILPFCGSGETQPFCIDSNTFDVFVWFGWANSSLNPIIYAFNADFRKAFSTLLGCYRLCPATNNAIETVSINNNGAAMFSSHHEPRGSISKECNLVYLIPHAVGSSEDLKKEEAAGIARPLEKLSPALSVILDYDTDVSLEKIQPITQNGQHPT

[5] = DRUGMATRIX: Glutamate, NMDA, Phencyclidine radioligand binding (ligand: [3H] TCP); assay type: cell membranes, Rattus norvegicus, Wistar, Cerebral cortex, Membrane; conditions: Not Active = under 50% inhibition at 10 µM
[6] = DRUGMATRIX: Interleukin IL-1 radioligand binding (ligand: [125I] interleukin 1beta); assay type: cell membranes, Membrane; conditions: nih3t3; Not Active = under 50% inhibition at 10 µM
[7] = target: T3, Cysteinyl leukotriene receptor 1 (Homo sapiens, UniProt Q9Y271); assay type: cell membranes, CHO-K1, Membrane; conditions: cho-k1; also: in other assays of this panel Not Active means under 50% inhibition at 10 µM
T3 sequence (Q9Y271 whole entry): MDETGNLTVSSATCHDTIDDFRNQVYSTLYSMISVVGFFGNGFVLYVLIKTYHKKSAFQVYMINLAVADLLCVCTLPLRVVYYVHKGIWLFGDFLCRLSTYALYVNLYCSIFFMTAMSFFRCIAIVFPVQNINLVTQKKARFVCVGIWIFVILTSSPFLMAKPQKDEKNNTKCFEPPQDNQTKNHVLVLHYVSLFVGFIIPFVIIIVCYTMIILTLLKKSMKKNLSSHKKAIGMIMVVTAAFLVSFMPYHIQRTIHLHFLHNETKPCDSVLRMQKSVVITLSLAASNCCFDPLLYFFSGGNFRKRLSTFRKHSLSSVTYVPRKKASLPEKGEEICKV

[8] = target: T4, Amine oxidase [flavin-containing] A (Homo sapiens, UniProt P21397); test: DRUGMATRIX: Monoamine Oxidase MAO-A enzyme inhibition (substrate: Kynuramine); parameters: species or system BTI-TN-5B1-4; conditions: bti-tn-5b1-4; Not Active = under 50% inhibition at 10 µM
T4 sequence (P21397 whole entry): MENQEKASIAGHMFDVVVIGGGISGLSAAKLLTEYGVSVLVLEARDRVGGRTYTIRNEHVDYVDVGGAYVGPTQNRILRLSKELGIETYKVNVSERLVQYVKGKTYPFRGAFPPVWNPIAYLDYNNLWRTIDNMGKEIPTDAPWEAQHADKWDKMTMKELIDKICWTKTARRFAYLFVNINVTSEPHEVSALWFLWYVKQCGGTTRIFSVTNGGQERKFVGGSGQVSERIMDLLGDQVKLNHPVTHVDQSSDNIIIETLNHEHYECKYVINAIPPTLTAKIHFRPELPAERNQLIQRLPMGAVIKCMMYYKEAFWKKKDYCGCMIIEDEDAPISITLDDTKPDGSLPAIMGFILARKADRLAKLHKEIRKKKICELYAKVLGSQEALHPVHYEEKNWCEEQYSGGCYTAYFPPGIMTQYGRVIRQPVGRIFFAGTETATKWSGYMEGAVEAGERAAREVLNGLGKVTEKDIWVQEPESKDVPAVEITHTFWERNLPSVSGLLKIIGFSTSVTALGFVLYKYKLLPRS

[9] = DRUGMATRIX: Phorbol Ester radioligand binding (ligand: [3H] PDBu); assay type: cell membranes, Mus musculus, ICR, Brain, Membrane; conditions: Not Active = under 50% inhibition at 10 µM
[10] = DRUGMATRIX: Phosphodiesterase PDE3 enzyme inhibition (substrate: [3H]cAMP + cAMP); assay type: tissue-based, Homo sapiens; conditions: platelet; Not Active = under 50% inhibition at 10 µM
[11] = DRUGMATRIX: Platelet-Derived Growth Factor (PDGF) radioligand binding (ligand: [125I] PDGF); assay type: cell-based; conditions: nih3t3; Not Active = under 50% inhibition at 10 µM
[12] = target: T5, Neutrophil elastase (Homo sapiens, UniProt P08246); assay type: tissue-based;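 also: inhibition of neutrophil elastase enzyme activity, measured with a p-nitroanilide-linked peptide substrate; in other assays of this panel Not Active means under 50% inhibition at 10 µM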
T5 sequence (P08246 whole entry): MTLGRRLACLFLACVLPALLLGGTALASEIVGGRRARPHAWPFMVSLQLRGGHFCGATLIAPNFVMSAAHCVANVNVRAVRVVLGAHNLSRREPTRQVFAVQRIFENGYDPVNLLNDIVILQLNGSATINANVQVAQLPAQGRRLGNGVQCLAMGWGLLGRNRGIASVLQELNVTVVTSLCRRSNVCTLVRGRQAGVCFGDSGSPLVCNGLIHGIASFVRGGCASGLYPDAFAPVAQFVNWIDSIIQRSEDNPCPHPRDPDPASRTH

[13] = DRUGMATRIX: Purinergic P2X radioligand binding (ligand: [3H] alpha, beta-Methylene-ATP); assay type: cell membranes, Oryctolagus cuniculus, New Zealand albino, Urinary bladder, Membrane; conditions: Not Active = under 50% inhibition at 10 µM
[14] = target: Estrogen receptor beta (Homo sapiens, UniProt Q92731); conditions: sf9; also: in other assays of this panel Not Active means under 50% inhibition at 10 µM
Sequence of Estrogen receptor beta (Q92731 whole entry): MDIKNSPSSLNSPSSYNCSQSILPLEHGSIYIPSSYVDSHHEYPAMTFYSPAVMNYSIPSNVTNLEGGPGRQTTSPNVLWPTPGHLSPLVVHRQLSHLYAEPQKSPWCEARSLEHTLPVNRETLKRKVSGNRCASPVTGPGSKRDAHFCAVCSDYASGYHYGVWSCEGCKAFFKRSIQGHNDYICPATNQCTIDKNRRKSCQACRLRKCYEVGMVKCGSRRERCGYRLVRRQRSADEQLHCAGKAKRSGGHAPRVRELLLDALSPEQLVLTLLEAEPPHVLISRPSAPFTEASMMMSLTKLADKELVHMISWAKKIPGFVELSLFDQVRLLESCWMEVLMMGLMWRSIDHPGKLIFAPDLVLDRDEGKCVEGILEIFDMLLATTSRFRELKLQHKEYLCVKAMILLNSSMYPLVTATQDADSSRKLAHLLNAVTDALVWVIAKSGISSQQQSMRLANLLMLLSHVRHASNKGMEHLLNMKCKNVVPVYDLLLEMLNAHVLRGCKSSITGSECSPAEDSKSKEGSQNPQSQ

COC1=CC(=O)C[C@@H](C)[C@]12Oc1c(Cl)c(OC)cc(OC)c1C2=O [GRISEOFULVIN]
Not Active: IC50 [1] | IC50 [2] | IC50 [3] | IC50 [4] | IC50 [5] | Ki [5] | IC50 [6] | Ki [6] | IC50 [7] | IC50 [8] | IC50 [9] | Ki [9] | IC50 [10] | Ki [10] | IC50 [11] | Ki [11] | IC50 [12] | IC50 [13] | Ki [13] | IC50 [14]

C/C=C1\[C@H]2C=C(C)C[C@]1(N)c1ccc(=O)[nH]c1C2 [HUPERZINE A]
Not Active: IC50 [1] | IC50 [2] | IC50 [3] | IC50 [4] | IC50 [5] | Ki [5] | IC50 [6] | Ki [6] | IC50 [7] | IC50 [8] | IC50 [9] | Ki [9] | IC50 [10] | Ki [10] | IC50 [11] | Ki [11] | IC50 [12] | IC50 [13] | Ki [13] | IC50 [14]

NS(=O)(=O)c1cc2c(cc1Cl)NCNS2(=O)=O [HYDROCHLOROTHIAZIDE]
Not Active: IC50 [1] | IC50 [2] | IC50 [3] | IC50 [4] | IC50 [5] | Ki [5] | IC50 [6] | Ki [6] | IC50 [7] | IC50 [8] | IC50 [9] | Ki [9] | IC50 [10] | Ki [10] | IC50 [11] | Ki [11] | IC50 [12] | IC50 [13] | Ki [13] | IC50 [14]

CN1CCC[C@H]1c1cccnc1 [NICOTINE]
Not Active: IC50 [1] | IC50 [2] | IC50 [3] | IC50 [4] | IC50 [5] | Ki [5] | IC50 [6] | Ki [6] | IC50 [7] | IC50 [8] | IC50 [9] | Ki [9] | IC50 [10] | Ki [10] | IC50 [11] | Ki [11] | IC50 [12] | IC50 [13] | Ki [13] | IC50 [14]

O=C1CN=C(c2ccccc2)c2cc([N+](=O)[O-])ccc2N1 [NITRAZEPAM]
Not Active: IC50 [1] | IC50 [2] | IC50 [3] | IC50 [4] | IC50 [5] | Ki [5] | IC50 [6] | Ki [6] | IC50 [7] | IC50 [8] | IC50 [9] | Ki [9] | IC50 [10] | Ki [10] | IC50 [11] | Ki [11] | IC50 [12] | IC50 [13] | Ki [13] | IC50 [14]

Oc1cccc2cccnc12 [OXYQUINOLINE]
Not Active: IC50 [1] | IC50 [2] | IC50 [3] | IC50 [4] | IC50 [5] | Ki [5] | IC50 [6] | Ki [6] | IC50 [7] | IC50 [8] | IC50 [9] | Ki [9] | IC50 [10] | Ki [10] | IC50 [11] | Ki [11] | IC50 [12] | IC50 [13] | Ki [13] | IC50 [14]

CN(C)[C@@H]1C(O)=C(C(N)=O)C(=O)[C@@]2(O)C(O)=C3C(=O)c4c(O)cccc4[C@@](C)(O)[C@H]3[C@H](O)[C@@H]12 [OXYTETRACYCLINE]
Not Active: IC50 [1] | IC50 [2] | IC50 [3] | IC50 [4] | IC50 [5] | Ki [5] | IC50 [6] | Ki [6] | IC50 [7] | IC50 [8] | IC50 [9] | Ki [9] | IC50 [10] | Ki [10] | IC50 [11] | Ki [11] | IC50 [12] | IC50 [13] | Ki [13] | IC50 [14]

CC(C)(S)[C@@H](N)C(=O)O [PENICILLAMINE]
Not Active: IC50 [1] | IC50 [2] | IC50 [3] | IC50 [4] | IC50 [5] | Ki [5] | IC50 [6] | Ki [6] | IC50 [7] | IC50 [8] | IC50 [9] | Ki [9] | IC50 [10] | Ki [10] | IC50 [11] | Ki [11] | IC50 [12] | IC50 [13] | Ki [13] | IC50 [14]
